Test results: DBAASP
Values after ≈ are worked out from the molar mass of the structure shown.

What was measured:
Test in all cases: ≥ marks a high value that may be exact or a test limit, other limits are often not marked, values filed in µg/mL are converted to µM
[1] = tested on: Streptococcus mutans UA159
Escherichia coli W3110 = tested on: Escherichia coli W3110
[2] = tested on: Streptococcus sanguinis NY101
[3] = tested on: Streptococcus mitis ATCC 903
[4] = tested on: Pseudomonas aeruginosa PAK
[5] = tested on: Streptococcus gordonii Challis DL1
[6] = tested on: Streptococcus sobrinus ATCC 33478
Staphylococcus aureus = tested on: Staphylococcus aureus
Enterococcus faecalis = tested on: Enterococcus faecalis
[7] = tested on: Pseudomonas aeruginosa BCRC 10944
[8] = tested on: Vibrio alginolyticus BCRC 12829
[9] = tested on: Escherichia coli BCRC 10675
[10] = tested on: Vibrio parahaemolyticus BCRC 10806
Streptococcus iniae = tested on: Streptococcus iniae
Vibrio harveyi = tested on: Vibrio harveyi
Vibrio alginolyticus = tested on: Vibrio alginolyticus
[11] = tested on: Staphylococcus aureus BCRC 10780
[12] = tested on: Yersinia enterocolitica BCRC 13999
[13] = tested on: Enterobacter cloacae BCRC 10401
Lactococcus garvieae = tested on: Lactococcus garvieae
[14] = tested on: Vibrio anguillarum serotype O1
[15] = tested on: Klebsiella aerogenes BCRC 10370
[16] = tested on: Klebsiella oxytoca BCRC 13985
[17] = tested on: Staphylococcus aureus BCRC 10781
[18] = tested on: Listeria monocytogenes BCRC 14845
[19] = tested on: Staphylococcus xylosus BCRC 12930
[20] = tested on: Streptococcus equinus BCRC 14729
Vibrio parahaemolyticus = tested on: Vibrio parahaemolyticus
[21] = tested on: Enterococcus faecalis NCTC 12697
[22] = tested on: Enterococcus faecalis ATCC 29212
[23] = tested on: Escherichia coli ATCC 25922
[24] = tested on: Staphylococcus aureus NCTC 10788
[25] = tested on: Candida albicans ATCC 1023
Candida albicans = tested on: Candida albicans
[26] = tested on: Pseudomonas aeruginosa ATCC 27853
[27] = tested on: Staphylococcus aureus ATCC 25923
Candida tropicalis = tested on: Candida tropicalis
[28] = tested on: Escherichia coli NCTC 10418

Compound | MIC [1] | MIC [7] | MIC [8] | MIC [9] | MIC (Streptococcus iniae) | MIC (Vibrio harveyi) | MIC (Vibrio alginolyticus) | MIC [11] | MIC [12] | MIC [13] | MIC (Lactococcus garvieae) | MIC [14] | MIC [15] | MIC [16] | MIC [17] | MIC [18] | MIC [19] | MIC [20] | MIC [10] | MIC (Vibrio parahaemolyticus) | also measured
CC[C@H](C)[C@H](NC(=O)[C@H](CCCCN)NC(=O)[C@@H](NC(=O)[C@@H](NC(=O)[C@@H](NC(=O)[C@H](CCCCN)NC(=O)[C@@H](NC(=O)[C@@H](NC(=O)[C@H](CCCCN)NC(=O)[C@H](CCCCN)NC(=O)[C@H](C)NC(=O)[C@H](Cc1ccc(O)cc1)NC(=O)[C@@H](NC(=O)[C@H](C)NC(=O)CN)[C@@H](C)O)[C@@H](C)CC)[C@@H](C)CC)[C@@H](C)O)[C@@H](C)CC)[C@@H](C)O)C(=O)N[C@@H](C)C(=O)N[C@H](C(=O)N[C@H](C(=O)N[C@@H](C)C(=O)N[C@@H](Cc1c[nH]c2ccccc12)C(=O)O)[C@@H](C)O)[C@@H](C)O [GATYAKKIIKTITKIATTAW] |  | 29.4 µM (≈ 64 µg/mL) | ≥ 58.7 µM | 7.34 µM (≈ 16 µg/mL) | ≥ 58.7 µM | 29.4 µM (≈ 64 µg/mL) | 29.4 µM (≈ 64 µg/mL) | ≥ 58.7 µM | ≥ 58.7 µM | 14.7 µM (≈ 32 µg/mL) | ≥ 58.7 µM | 29.4 µM (≈ 64 µg/mL) | 29.4 µM (≈ 64 µg/mL) | 29.4 µM (≈ 64 µg/mL) | ≥ 58.7 µM | ≥ 58.7 µM | 29.4 µM (≈ 64 µg/mL) | ≥ 58.7 µM | ≥ 58.7 µM | 29.4 µM (≈ 64 µg/mL) | 
CSCC[C@H](NC(=O)[C@H](CC(=O)O)NC(=O)[C@@H](NC(=O)[C@@H](NC(=O)[C@H](C)NC(=O)[C@H](CC(N)=O)NC(=O)[C@H](CC(C)C)NC(=O)[C@H](C)NC(=O)[C@H](C)NC(=O)[C@H](CCCCN)NC(=O)CNC(=O)[C@H](C)NC(=O)[C@H](C)NC(=O)[C@H](CCCCN)NC(=O)CNC(=O)[C@@H](NC(=O)[C@H](CC(N)=O)NC(=O)[C@H](CCCCN)NC(=O)[C@H](CC(C)C)NC(=O)[C@H](CC(C)C)NC(=O)[C@@H](NC(=O)[C@H](CCCCN)NC(=O)[C@H](Cc1c[nH]c2ccccc12)NC(=O)[C@H](CC(C)C)NC(=O)[C@H](C)N)[C@@H](C)O)C(C)C)C(C)C)[C@@H](C)O)C(=O)N[C@H](C(=O)N[C@@H](CC(N)=O)C(=O)N[C@@H](CCC(N)=O)C(=O)O)C(C)C [ALWKTLLKNVGKAAGKAALNAVTDMVNQ] |  |  |  |  |  |  |  |  |  |  |  |  |  |  |  |  |  |  |  |  | MIC [21]: 10 µM (≈ 29.3 µg/mL); MIC [22]: 10 µM (≈ 29.3 µg/mL); MIC [23]: 2.5 µM (≈ 7.32 µg/mL); MIC [24]: 1.3 µM (≈ 3.8 µg/mL); MIC [25]: 10.9 µM (≈ 31.9 µg/mL); MIC (Candida albicans): 21.8 µM (≈ 63.8 µg/mL); MIC [26]: 40 µM (≈ 117 µg/mL); MIC [27]: 1.3 µM (≈ 3.8 µg/mL); MIC (Candida tropicalis): 10.9 µM (≈ 31.9 µg/mL); MIC [28]: 2.5 µM (≈ 7.32 µg/mL)
CC[C@H](C)[C@H](NC(=O)[C@H](Cc1ccc(O)cc1)NC(=O)[C@H](CCCCN)NC(=O)[C@H](Cc1ccccc1)NC(=O)[C@H](Cc1ccccc1)NC(=O)[C@H](CCCCN)NC(=O)[C@H](CC(N)=O)NC(=O)[C@@H](NC(=O)[C@H](Cc1ccc(O)cc1)NC(=O)[C@H](CCCCN)NC(=O)[C@@H](NC(=O)[C@@H](NC(=O)[C@H](CC(N)=O)NC(=O)[C@H](CC(N)=O)NC(=O)[C@@H](NC(=O)[C@H](Cc1ccc(O)cc1)NC(=O)[C@H](CCCCN)NC(=O)[C@H](Cc1ccc(O)cc1)NC(=O)CN)[C@@H](C)CC)[C@@H](C)CC)[C@@H](C)CC)[C@@H](C)CC)C(=O)N[C@@H](Cc1c[nH]c2ccccc12)C(=O)O [GYKYINNIIKYINKFFKYIW] |  | 12.2 µM (≈ 32 µg/mL) | 12.2 µM (≈ 32 µg/mL) | 6.09 µM (≈ 16 µg/mL) | 12.2 µM (≈ 32 µg/mL) | 3.04 µM (≈ 8 µg/mL) | 3.04 µM (≈ 8 µg/mL) | 3.04 µM (≈ 8 µg/mL) | ≥ 48.7 µM | 6.09 µM (≈ 16 µg/mL) | ≥ 48.7 µM | 3.04 µM (≈ 8 µg/mL) | 6.09 µM (≈ 16 µg/mL) | 6.09 µM (≈ 16 µg/mL) | 3.04 µM (≈ 8 µg/mL) | 12.2 µM (≈ 32 µg/mL) | 3.04 µM (≈ 8 µg/mL) | ≥ 48.7 µM | 12.2 µM (≈ 32 µg/mL) | 3.04 µM (≈ 8 µg/mL) | 
CC[C@H](C)[C@H](NC(=O)[C@H](Cc1cnc[nH]1)NC(=O)[C@H](CCCCN)NC(=O)[C@@H](NC(=O)[C@@H](N)CC(C)C)[C@@H](C)CC)C(=O)N[C@@H](CC(C)C)C(=O)N[C@@H](Cc1cnc[nH]1)C(=O)N[C@@H](CCCN=C(N)N)C(=O)N[C@@H](CC(C)C)C(=O)NCC(=O)NCC(=O)NCC(=O)N[C@@H](Cc1ccccc1)C(=O)N[C@@H](Cc1cnc[nH]1)C(=O)N[C@@H](Cc1ccccc1)C(=O)N[C@@H](Cc1cnc[nH]1)C(=O)N[C@@H](CC(C)C)C(=O)N[C@@H](Cc1cnc[nH]1)C(=O)N[C@@H](Cc1ccccc1)C(N)=O [LIKHILHRLGGGFHFHLHF] | 7.02 µM (≈ 16 µg/mL) |  |  |  |  |  |  |  |  |  |  |  |  |  |  |  |  |  |  |  | MIC (Escherichia coli W3110): ≥ 110 µM; MIC [2]: 27.4 µM (≈ 62.5 µg/mL); MIC [4]: ≥ 110 µM; MIC [6]: 14 µM (≈ 32 µg/mL); MIC (Staphylococcus aureus): 27.4 µM (≈ 62.5 µg/mL); MIC (Enterococcus faecalis): 14 µM (≈ 32 µg/mL)

Further lines, with some results ahead:

MIC [1] | MIC [7] | MIC [8] | MIC [9] | MIC (Streptococcus iniae) | MIC (Vibrio harveyi) | MIC (Vibrio alginolyticus) | MIC [11] | MIC [12] | MIC [13] | MIC (Lactococcus garvieae) | MIC [14] | MIC [15] | MIC [16] | MIC [17] | MIC [18] | MIC [19] | MIC [20] | Compound | MIC [10] | MIC (Vibrio parahaemolyticus) | also measured
≥ 348 µM |  |  |  |  |  |  |  |  |  |  |  |  |  |  |  |  |  | NC(=O)CC[C@H](NC(=O)[C@H](Cc1c[nH]c2ccccc12)NC(=O)[C@@H](N)Cc1c[nH]c2ccccc12)C(=O)N[C@@H](CC(=O)O)C(=O)N[C@@H](Cc1c[nH]c2ccccc12)C(=O)N[C@@H](Cc1c[nH]c2ccccc12)C(=O)N[C@@H](CC(N)=O)C(=O)N[C@@H](CCC(=O)O)C(=O)N[C@@H](Cc1c[nH]c2ccccc12)C(N)=O [WWQDWWNEW] |  |  | MIC (Escherichia coli W3110): ≥ 348 µM; MIC [2]: ≥ 348 µM; MIC [3]: ≥ 348 µM; MIC [4]: ≥ 348 µM; MIC [5]: ≥ 348 µM; MIC [6]: ≥ 348 µM; MIC (Staphylococcus aureus): > 348 µM; MIC (Enterococcus faecalis): ≥ 348 µM
 | 13.5 µM (≈ 32 µg/mL) | 13.5 µM (≈ 32 µg/mL) | 13.5 µM (≈ 32 µg/mL) | 13.5 µM (≈ 32 µg/mL) | 3.38 µM (≈ 8 µg/mL) | 3.38 µM (≈ 8 µg/mL) | 6.75 µM (≈ 16 µg/mL) | 27 µM (≈ 64 µg/mL) | 6.75 µM (≈ 16 µg/mL) | 13.5 µM (≈ 32 µg/mL) | 3.38 µM (≈ 8 µg/mL) | 6.75 µM (≈ 16 µg/mL) | ≥ 54 µM | 6.75 µM (≈ 16 µg/mL) | 3.38 µM (≈ 8 µg/mL) | 6.75 µM (≈ 16 µg/mL) | ≥ 54 µM | CC[C@H](C)[C@H](NC(=O)[C@H](C)NC(=O)[C@@H](NC(=O)[C@H](Cc1ccc(O)cc1)NC(=O)[C@@H](NC(=O)[C@H](CCCCN)NC(=O)[C@H](CCCCN)NC(=O)[C@H](C)NC(=O)[C@H](Cc1ccccc1)NC(=O)[C@H](CC(N)=O)NC(=O)[C@H](CC(C)C)NC(=O)[C@@H](NC(=O)[C@H](CCCCN)NC(=O)[C@H](CCCCN)NC(=O)[C@H](CC(C)C)NC(=O)[C@H](Cc1ccccc1)NC(=O)[C@@H](NC(=O)[C@H](CC(C)C)NC(=O)CN)[C@@H](C)O)[C@@H](C)CC)[C@@H](C)CC)[C@@H](C)O)C(=O)N[C@@H](Cc1c[nH]c2ccccc12)C(=O)O [GLTFLKKILNFAKKIYTAIW] | 13.5 µM (≈ 32 µg/mL) | 3.38 µM (≈ 8 µg/mL) | 
